Source: PubChem BioAssay (NCI)
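These data come from cells grown in 96-well plates and exposed to compound for 48 hours at five concentrations. Abbreviation: GI50, concentration required for 50% inhibition of growth. The concentration for full growth arrest is given as TGI.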

Key:
Assay in all cases: inhibition of tumour cell growth, NCI panel, 48 h
786-0 renal = system: 786-0 renal
A498 renal = system: A498 renal
A549 NSCLC = system: A549 NSCLC
ACHN renal = system: ACHN renal
CAKI-1 renal = system: CAKI-1 renal
CCRF-CEM leukemia = system: CCRF-CEM leukemia
COLO 205 colon = system: COLO 205 colon
DU-145 prostate = system: DU-145 prostate
EKVX NSCLC = system: EKVX NSCLC
HCT-116 colon = system: HCT-116 colon
HCT-15 colon = system: HCT-15 colon
HL-60(TB) leukemia = system: HL-60(TB) leukemia
HOP-62 NSCLC = system: HOP-62 NSCLC
HOP-92 NSCLC = system: HOP-92 NSCLC
HS 578T breast = system: HS 578T breast
HT29 colon = system: HT29 colon
IGROV1 ovarian = system: IGROV1 ovarian
K-562 leukemia = system: K-562 leukemia
KM12 colon = system: KM12 colon
LOX IMVI melanoma = system: LOX IMVI melanoma
M14 melanoma = system: M14 melanoma
MALME-3M melanoma = system: MALME-3M melanoma
MCF7 breast = system: MCF7 breast
MDA-MB-231 breast = system: MDA-MB-231 breast
MDA-MB-435 = system: MDA-MB-435
MDA-N = system: MDA-N
MOLT-4 leukemia = system: MOLT-4 leukemia
NCI-H226 lung = system: NCI-H226 lung
NCI-H23 lung = system: NCI-H23 lung
NCI-H460 lung = system: NCI-H460 lung
NCI-H522 lung = system: NCI-H522 lung
NCI/ADR-RES ovarian = system: NCI/ADR-RES ovarian
OVCAR-3 ovarian = system: OVCAR-3 ovarian
OVCAR-4 ovarian = system: OVCAR-4 ovarian
OVCAR-5 ovarian = system: OVCAR-5 ovarian
OVCAR-8 ovarian = system: OVCAR-8 ovarian
PC-3 prostate = system: PC-3 prostate
RPMI-8226 leukemia = system: RPMI-8226 leukemia
RXF 393 renal = system: RXF 393 renal
SF-268 CNS = system: SF-268 CNS
SF-295 CNS = system: SF-295 CNS
SF-539 CNS = system: SF-539 CNS
SK-MEL-2 melanoma = system: SK-MEL-2 melanoma
SK-MEL-28 melanoma = system: SK-MEL-28 melanoma
SK-MEL-5 melanoma = system: SK-MEL-5 melanoma
SK-OV-3 ovarian = system: SK-OV-3 ovarian
SN12C renal = system: SN12C renal
SNB-19 CNS = system: SNB-19 CNS
SNB-75 CNS = system: SNB-75 CNS
SW-620 colon = system: SW-620 colon
T-47D breast = system: T-47D breast
TK-10 renal = system: TK-10 renal
U251 CNS = system: U251 CNS
UACC-257 melanoma = system: UACC-257 melanoma
UACC-62 melanoma = system: UACC-62 melanoma
UO-31 renal = system: UO-31 renal
BT-549 breast = system: BT-549 breast
HCC-2998 colon = system: HCC-2998 colon
SR leukemia = system: SR leukemia

O=S(=O)(Nc1nc(-c2cc(O)c(O)c(O)c2)cs1)c1ccc(Cl)cc1Cl
TGI (786-0 renal): 46.2 µM
TGI (A498 renal): > 100 µM
TGI (A549 NSCLC): > 100 µM
TGI (ACHN renal): 28.1 µM
TGI (CAKI-1 renal): 35.5 µM
TGI (CCRF-CEM leukemia): 41.5 µM
TGI (COLO 205 colon): 50.2 µM
TGI (DU-145 prostate): 53.8 µM
TGI (EKVX NSCLC): 33.5 µM
TGI (HCT-116 colon): 40.1 µM
TGI (HCT-15 colon): 33 µM
TGI (HL-60(TB) leukemia): > 100 µM
TGI (HOP-62 NSCLC): 35.1 µM
TGI (HOP-92 NSCLC): > 100 µM
TGI (HS 578T breast): 53.6 µM
TGI (HT29 colon): 51.2 µM
TGI (IGROV1 ovarian): 45.9 µM
TGI (K-562 leukemia): 48 µM
TGI (KM12 colon): 31.1 µM
TGI (LOX IMVI melanoma): 33.6 µM
TGI (M14 melanoma): 50.6 µM
TGI (MALME-3M melanoma): > 100 µM
TGI (MCF7 breast): 36.1 µM
TGI (MDA-MB-231 breast): 44.9 µM
TGI (MDA-MB-435): 56.9 µM
TGI (MDA-N): 73.9 µM
TGI (MOLT-4 leukemia): 52.7 µM
TGI (NCI-H226 lung): > 100 µM
TGI (NCI-H23 lung): 74.1 µM
TGI (NCI-H460 lung): 38.6 µM
TGI (NCI-H522 lung): 34.5 µM
TGI (NCI/ADR-RES ovarian): 69 µM
TGI (OVCAR-3 ovarian): 37.6 µM
TGI (OVCAR-4 ovarian): 47.9 µM
TGI (OVCAR-5 ovarian): 33.4 µM
TGI (OVCAR-8 ovarian): 14.9 µM
TGI (PC-3 prostate): > 100 µM
TGI (RPMI-8226 leukemia): 40.8 µM
TGI (RXF 393 renal): 71.4 µM
TGI (SF-268 CNS): 46.2 µM
TGI (SF-295 CNS): 34.4 µM
TGI (SF-539 CNS): 71.5 µM
TGI (SK-MEL-2 melanoma): > 100 µM
TGI (SK-MEL-28 melanoma): > 100 µM
TGI (SK-MEL-5 melanoma): 34.2 µM
TGI (SK-OV-3 ovarian): > 100 µM
TGI (SN12C renal): 33.4 µM
TGI (SNB-19 CNS): > 100 µM
TGI (SNB-75 CNS): 77.6 µM
TGI (SW-620 colon): 37.5 µM
TGI (T-47D breast): 41.1 µM
TGI (TK-10 renal): 36.2 µM
TGI (U251 CNS): 37.3 µM
TGI (UACC-257 melanoma): 67.7 µM
TGI (UACC-62 melanoma): > 100 µM
TGI (UO-31 renal): 46.5 µM

OCCCCC#Cc1ccccc1C#Cc1cccs1
GI50 (786-0 renal): 14.3 µM
TGI (786-0 renal): 27.9 µM
GI50 (A498 renal): 9.67 µM
TGI (A498 renal): 23.3 µM
GI50 (A549 NSCLC): 17.4 µM
TGI (A549 NSCLC): 31.1 µM
GI50 (ACHN renal): 15.5 µM
TGI (ACHN renal): 28.8 µM
GI50 (BT-549 breast): 12.4 µM
TGI (BT-549 breast): 25.4 µM
GI50 (CAKI-1 renal): 14.6 µM
TGI (CAKI-1 renal): 28.3 µM
GI50 (CCRF-CEM leukemia): 2.29 µM
TGI (CCRF-CEM leukemia): 11.5 µM
GI50 (COLO 205 colon): 16.4 µM
TGI (COLO 205 colon): 31.5 µM
GI50 (DU-145 prostate): 13 µM
TGI (DU-145 prostate): 25.7 µM
GI50 (EKVX NSCLC): 10.8 µM
TGI (EKVX NSCLC): 23.9 µM
GI50 (HCC-2998 colon): 18.3 µM
TGI (HCC-2998 colon): 33.7 µM
GI50 (HCT-116 colon): 15.2 µM
TGI (HCT-116 colon): 31.4 µM
GI50 (HCT-15 colon): 13.1 µM
TGI (HCT-15 colon): 26.5 µM
GI50 (HOP-62 NSCLC): 13 µM
TGI (HOP-62 NSCLC): 26.5 µM
GI50 (HOP-92 NSCLC): 14.1 µM
TGI (HOP-92 NSCLC): 28.7 µM
GI50 (HS 578T breast): 14.9 µM
TGI (HS 578T breast): 39.1 µM
GI50 (HT29 colon): 12 µM
TGI (HT29 colon): 27.6 µM
GI50 (IGROV1 ovarian): 16.5 µM
TGI (IGROV1 ovarian): 30.5 µM
GI50 (K-562 leukemia): 20.3 µM
TGI (K-562 leukemia): 70.6 µM
GI50 (KM12 colon): 16.6 µM
TGI (KM12 colon): 48 µM
GI50 (LOX IMVI melanoma): 13.9 µM
TGI (LOX IMVI melanoma): 26.8 µM
GI50 (MALME-3M melanoma): 22.8 µM
TGI (MALME-3M melanoma): 55.4 µM
GI50 (MCF7 breast): 1.88 µM
TGI (MCF7 breast): 29.1 µM
GI50 (MDA-MB-231 breast): 10.6 µM
TGI (MDA-MB-231 breast): 23.3 µM
GI50 (MDA-MB-435): 16.6 µM
TGI (MDA-MB-435): 30.8 µM
GI50 (MOLT-4 leukemia): 18.8 µM
TGI (MOLT-4 leukemia): 40.3 µM
GI50 (NCI-H226 lung): 18.9 µM
TGI (NCI-H226 lung): 43.6 µM
GI50 (NCI-H23 lung): 14.2 µM
TGI (NCI-H23 lung): 30.9 µM
GI50 (NCI-H460 lung): 15.1 µM
TGI (NCI-H460 lung): 29.8 µM
GI50 (NCI-H522 lung): 18.5 µM
TGI (NCI-H522 lung): 35.6 µM
GI50 (NCI/ADR-RES ovarian): 17.7 µM
TGI (NCI/ADR-RES ovarian): 34.5 µM
GI50 (OVCAR-3 ovarian): 15 µM
TGI (OVCAR-3 ovarian): 28.9 µM
GI50 (OVCAR-4 ovarian): 20.2 µM
TGI (OVCAR-4 ovarian): 50.1 µM
GI50 (OVCAR-5 ovarian): 16.1 µM
TGI (OVCAR-5 ovarian): 31.7 µM
GI50 (OVCAR-8 ovarian): 16.4 µM
TGI (OVCAR-8 ovarian): 31.2 µM
GI50 (PC-3 prostate): 16.2 µM
TGI (PC-3 prostate): 30.8 µM
GI50 (RPMI-8226 leukemia): 22 µM
TGI (RPMI-8226 leukemia): 71 µM
GI50 (RXF 393 renal): 15.8 µM
TGI (RXF 393 renal): 30.3 µM
GI50 (SF-268 CNS): 15.8 µM
TGI (SF-268 CNS): 32 µM
GI50 (SF-295 CNS): 19 µM
TGI (SF-295 CNS): 34.7 µM
GI50 (SF-539 CNS): 12.9 µM
TGI (SF-539 CNS): 25.9 µM
GI50 (SK-MEL-2 melanoma): 19 µM
TGI (SK-MEL-2 melanoma): 37.9 µM
GI50 (SK-MEL-28 melanoma): 15.8 µM
TGI (SK-MEL-28 melanoma): 31.1 µM
GI50 (SK-MEL-5 melanoma): 13.3 µM
TGI (SK-MEL-5 melanoma): 26 µM
GI50 (SK-OV-3 ovarian): 15.5 µM
TGI (SK-OV-3 ovarian): 30.6 µM
GI50 (SN12C renal): 16.3 µM
TGI (SN12C renal): 31.7 µM
GI50 (SNB-19 CNS): 16.1 µM
TGI (SNB-19 CNS): 31.1 µM
GI50 (SNB-75 CNS): 11.8 µM
TGI (SNB-75 CNS): 24.8 µM
GI50 (SR leukemia): 1.85 µM
TGI (SR leukemia): 14.5 µM
GI50 (SW-620 colon): 15.9 µM
TGI (SW-620 colon): 30.6 µM
GI50 (T-47D breast): 1.18 µM
TGI (T-47D breast): 23.2 µM
GI50 (TK-10 renal): 25.3 µM
TGI (TK-10 renal): 52.9 µM
GI50 (U251 CNS): 13.9 µM
TGI (U251 CNS): 27 µM
GI50 (UACC-257 melanoma): 18.8 µM
TGI (UACC-257 melanoma): 33 µM
GI50 (UACC-62 melanoma): 12.9 µM
TGI (UACC-62 melanoma): 25.9 µM
GI50 (UO-31 renal): 16.9 µM
TGI (UO-31 renal): 30.6 µM
